For the test, the target named is T1, h-11βHSD1 (Homo sapiens, UniProt P28845).
T1 construct: made in house; host or cells: yeast (extract of transformed yeast)
Briefly: 11βHSD1 enzyme assay (SPA). It counts as biochemical. To be noted: extract of yeast transformed with h-11βHSD1; 120 nM 3H-cortisone, 4 mM β-NADPH, 60 min at 30° C. The method, then: ^3H-cortisone and anti-rabbit Ig coated scintillation proximity assay (SPA) beads were purchased from Amersham Pharmacia Biotech, β-NADPH was from Sigma and rabbit anti-cortisol antibodies were from Fitzgerald. An extract of yeast transformed with h-11βHSD1 (Hult et al., FEBS Lett. 441, 25 (1998)) was used as the source of enzyme. The test compounds were dissolved in DMSO (10 mM). All dilutions were performed in a buffer containing 50 mM TRIS-HCl (Sigma Chemical Co), 4 mM EDTA (Sigma Chemical Co), 0.1% BSA (Sigma Chemical Co), 0.01% Tween-20 (Sigma Chemical Co) and 0.005% bacitracin (Novo Nordisk A/S), pH=7.4. Optiplate 96 wells plates were supplied by Packard. The amount of ^3H-cortisol bound to the SPA beads was measured on TopCount NXT, Packard.
h-11βHSD1, 120 nM ^3H-cortisone, 4 mM β-NADPH, antibody (1:200), serial dilutions of test compound and SPA particles (2 mg/well) were added to the wells. The reaction was initiated by mixing the different components and was allowed to proceed under shaking for 60 min at 30° C. […] Data was analysed using GraphPad Prism software.

What is called IC50 is the concentration needed to halve the response being measured. Read a low IC50 as greater potency.

T1 sequence (P28845 whole entry): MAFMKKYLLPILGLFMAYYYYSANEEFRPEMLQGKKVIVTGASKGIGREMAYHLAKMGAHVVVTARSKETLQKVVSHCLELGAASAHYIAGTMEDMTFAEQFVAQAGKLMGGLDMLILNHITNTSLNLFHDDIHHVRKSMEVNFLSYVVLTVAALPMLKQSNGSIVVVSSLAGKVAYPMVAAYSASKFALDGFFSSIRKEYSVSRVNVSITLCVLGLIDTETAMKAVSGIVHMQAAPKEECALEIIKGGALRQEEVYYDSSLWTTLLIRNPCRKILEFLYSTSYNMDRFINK

On to `Brc1ccccc1-c1nnc2n1CCCCC2` [Example 1, 3-(2-Bromo-phenyl)-6,7,8,9-tetrahydro-5H-[1,2,4]triazolo[4,3-a]azepine], for which the IC50 turned out to be 230 nM.

`c1ccc(OCc2ccccc2-c2nnc3n2CCCCC3)cc1` [Example 1-a]: the IC50 was determined as 110 nM.

For the origin of these results see US7723323B2, “Pharmaceutical use of fused 1,2,4-triazoles” (High Point Pharmaceuticals, LLC, priority 2003, dated 2010).
